Assay results taken from ChEMBL document CHEMBL4138123, “Design, synthesis and biological evaluation of novel pyrazolochalcones as potential modulators of PI3K/Akt/mTOR pathway and inducers of apoptosis in breast cancer cells” (Eur J Med Chem, 2017).

Tests used:
Format in all cases: functional
[1] = system: K562; experiment: Cytotoxicity against human K562 cells assessed as cell growth at 100 uM after 48 hrs by sulforhodamine B assay relative to control; conditions: K562, 48 h, read-out: Activity
[2] = system: UO-31; experiment: Cytotoxicity against human UO31 cells assessed as cell growth at 100 uM after 48 hrs by sulforhodamine B assay relative to control; conditions: UO-31, 48 h, read-out: Activity
[3] = system: COLO 205; experiment: Cytotoxicity against human COLO205 cells assessed as cell growth at 0.01 uM after 48 hrs by sulforhodamine B assay relative to control; conditions: COLO 205, 48 h, read-out: Activity
[4] = system: OVCAR-3; experiment: Cytotoxicity against human OVCAR3 cells assessed as cell growth at 1 uM after 48 hrs by sulforhodamine B assay relative to control; conditions: OVCAR-3, 48 h, read-out: Activity
[5] = system: HL-60(TB); experiment: Cytotoxicity against human HL-60(TB) cells assessed as cell growth at 10 uM after 48 hrs by sulforhodamine B assay relative to control; conditions: HL-60, 48 h, read-out: Activity
[6] = system: IGROV-1; experiment: Cytotoxicity against human IGROV1 cells assessed as cell growth at 0.1 uM after 48 hrs by sulforhodamine B assay relative to control; conditions: IGROV-1, 48 h, read-out: Activity
[7] = system: SNB-19; experiment: Cytotoxicity against human SNB19 cells assessed as cell growth at 1 uM after 48 hrs by sulforhodamine B assay relative to control; conditions: SNB-19, 48 h, read-out: Activity
[8] = system: COLO 205; experiment: Cytotoxicity against human COLO205 cells assessed as cell growth at 100 uM after 48 hrs by sulforhodamine B assay relative to control; conditions: COLO 205, 48 h, read-out: Activity
[9] = system: M14; experiment: Cytotoxicity against human M14 cells assessed as cell growth at 10 uM after 48 hrs by sulforhodamine B assay relative to control; conditions: M14, 48 h, read-out: Activity
[10] = system: HCT-15; experiment: Cytotoxicity against human HCT15 cells assessed as cell growth at 0.1 uM after 48 hrs by sulforhodamine B assay relative to control; conditions: HCT-15, 48 h, read-out: Activity
[11] = system: MDA-MB-468; experiment: Cytotoxicity against human MDA-MB-468 cells assessed as cell growth at 0.1 uM after 48 hrs by sulforhodamine B assay relative to control; conditions: MDA-MB-468, 48 h, read-out: Activity
[12] = system: A498; experiment: Cytotoxicity against human A498 cells assessed as cell growth at 100 uM after 48 hrs by sulforhodamine B assay relative to control; conditions: A498, 48 h, read-out: Activity
[13] = system: M14; experiment: Cytotoxicity against human M14 cells assessed as cell growth at 0.1 uM after 48 hrs by sulforhodamine B assay relative to control; conditions: M14, 48 h, read-out: Activity
[14] = system: NCI-H322M; experiment: Cytotoxicity against human NCI-H322M cells assessed as cell growth at 0.1 uM after 48 hrs by sulforhodamine B assay relative to control; conditions: read-out: Activity
[15] = system: RXF 393; experiment: Cytotoxicity against human RXF393 cells assessed as cell growth at 10 uM after 48 hrs by sulforhodamine B assay relative to control; conditions: RXF 393, 48 h, read-out: Activity
[16] = system: MDA-MB-231; experiment: Cytotoxicity against human MDA-MB-231 cells assessed as cell growth at 100 uM after 48 hrs by sulforhodamine B assay relative to control; conditions: MDA-MB-231, 48 h, read-out: Activity
[17] = system: Malme-3M; experiment: Cytotoxicity against human MALME-3M cells assessed as cell growth at 100 uM after 48 hrs by sulforhodamine B assay relative to control; conditions: read-out: Activity
[18] = system: MDA-MB-468; experiment: Cytotoxicity against human MDA-MB-468 cells assessed as cell growth at 1 uM after 48 hrs by sulforhodamine B assay relative to control; conditions: MDA-MB-468, 48 h, read-out: Activity
[19] = system: Malme-3M; experiment: Cytotoxicity against human MALME-3M cells assessed as cell growth at 1 uM after 48 hrs by sulforhodamine B assay relative to control; conditions: read-out: Activity
[20] = system: OVCAR-5; experiment: Cytotoxicity against human OVCAR5 cells assessed as cell growth at 100 uM after 48 hrs by sulforhodamine B assay relative to control; conditions: OVCAR-5, 48 h, read-out: Activity
[21] = system: IGROV-1; experiment: Cytotoxicity against human IGROV1 cells assessed as cell growth at 100 uM after 48 hrs by sulforhodamine B assay relative to control; conditions: IGROV-1, 48 h, read-out: Activity
[22] = system: UO-31; experiment: Cytotoxicity against human UO31 cells assessed as cell growth at 1 uM after 48 hrs by sulforhodamine B assay relative to control; conditions: UO-31, 48 h, read-out: Activity
[23] = system: SF-268; experiment: Cytotoxicity against human SF268 cells assessed as cell growth at 0.01 uM after 48 hrs by sulforhodamine B assay relative to control; conditions: SF-268, 48 h, read-out: Activity
[24] = system: ACHN; experiment: Cytotoxicity against human ACHN cells assessed as growth inhibition after 48 hrs by sulforhodamine B assay
[25] = system: HCC 2998; experiment: Cytotoxicity against human HCC2998 cells assessed as growth inhibition after 48 hrs by sulforhodamine B assay; conditions: HCC 2998, 48 h
[26] = system: Malme-3M; experiment: Cytotoxicity against human MALME-3M cells assessed as cell growth at 10 uM after 48 hrs by sulforhodamine B assay relative to control; conditions: read-out: Activity
[27] = system: HOP-62; experiment: Cytotoxicity against human HOP62 cells assessed as cell growth at 0.01 uM after 48 hrs by sulforhodamine B assay relative to control; conditions: HOP-62, 48 h, read-out: Activity
[28] = system: MCF7; experiment: Cytotoxicity against human MCF7 cells assessed as growth inhibition after 48 hrs by sulforhodamine B assay; conditions: MCF7, 48 h
[29] = system: M14; experiment: Cytotoxicity against human M14 cells assessed as growth inhibition after 48 hrs by sulforhodamine B assay; conditions: M14, 48 h
[30] = system: SR; experiment: Cytotoxicity against human SR cells assessed as cell growth at 0.1 uM after 48 hrs by sulforhodamine B assay relative to control; conditions: read-out: Activity
[31] = system: A498; experiment: Cytotoxicity against human A498 cells assessed as cell growth at 0.1 uM after 48 hrs by sulforhodamine B assay relative to control; conditions: A498, 48 h, read-out: Activity
[32] = system: NCI-H226; experiment: Cytotoxicity against human NCI-H226 cells assessed as cell growth at 100 uM after 48 hrs by sulforhodamine B assay relative to control; conditions: NCI-H226, 48 h, read-out: Activity
[33] = system: UO-31; experiment: Cytotoxicity against human UO31 cells assessed as cell growth at 0.01 uM after 48 hrs by sulforhodamine B assay relative to control; conditions: UO-31, 48 h, read-out: Activity
[34] = system: 786-0; experiment: Cytotoxicity against human 786-0 cells assessed as cell growth at 0.1 uM after 48 hrs by sulforhodamine B assay relative to control; conditions: 786-0, 48 h, read-out: Activity
[35] = system: NCI-H23; experiment: Cytotoxicity against human NCI-H23 cells assessed as cell growth at 1 uM after 48 hrs by sulforhodamine B assay relative to control; conditions: NCI-H23, 48 h, read-out: Activity
[36] = system: HT-29; experiment: Cytotoxicity against human HT-29 cells assessed as cell growth at 1 uM after 48 hrs by sulforhodamine B assay relative to control; conditions: HT-29, 48 h, read-out: Activity
[37] = system: COLO 205; experiment: Cytotoxicity against human COLO205 cells assessed as cell growth at 1 uM after 48 hrs by sulforhodamine B assay relative to control; conditions: COLO 205, 48 h, read-out: Activity

COc1cc(C(=O)/C=C/c2cc(-c3cc(OC)c(OC)c(OC)c3)n[nH]2)cc(OC)c1OC
growth at 100 µM [1]: 1% | growth at 100 µM [2]: -100% | growth at 0.01 µM [3]: 103% | growth at 1 µM [4]: 97% | growth at 10 µM [5]: -28% | growth at 0.1 µM [6]: 103% | growth at 1 µM [7]: 82% | growth at 100 µM [8]: -100% | growth at 10 µM [9]: -90% | growth at 0.1 µM [10]: 94% | growth at 0.1 µM [11]: 84% | growth at 100 µM [12]: -98% | growth at 0.1 µM [13]: 109% | growth at 0.1 µM [14]: 97% | growth at 10 µM [15]: -88% | growth at 100 µM [16]: -96% | growth at 100 µM [17]: -94% | growth at 1 µM [18]: 59% | growth at 1 µM [19]: 89% | growth at 100 µM [20]: -72% | growth at 100 µM [21]: -97% | growth at 1 µM [22]: 62% | growth at 0.01 µM [23]: 99% | LC50 [24]: 5.57 µM | TGI [24]: 3.01 µM | LC50 [25]: 6.31 µM | TGI [25]: 3.39 µM | growth at 10 µM [26]: -57% | growth at 0.01 µM [27]: 97% | LC50 [28]: 5.22 µM | TGI [28]: 2.07 µM | LC50 (concentration killing 50% of cells) [29]: 6.13 µM | TGI [29]: 3.32 µM | growth at 0.1 µM [30]: 93% | growth at 0.1 µM [31]: 90% | growth at 100 µM [32]: -50% | growth at 0.01 µM [33]: 90% | growth at 0.1 µM [34]: 105% | growth at 1 µM [35]: 97% | growth at 1 µM [36]: 96% | growth at 1 µM [37]: 98%

COc1cc2c(cc1OC)C(=O)/C(=C/c1cc(-c3ccc4c(c3)OCO4)n[nH]1)C2
growth at 100 µM [1]: 4% | growth at 100 µM [2]: -95% | growth at 0.01 µM [3]: 98% | growth at 1 µM [4]: 75% | growth at 10 µM [5]: -29% | growth at 0.1 µM [6]: 88% | growth at 1 µM [7]: 84% | growth at 100 µM [8]: -88% | growth at 10 µM [9]: -87% | growth at 0.1 µM [10]: 93% | growth at 0.1 µM [11]: 83% | growth at 100 µM [12]: -97% | growth at 0.1 µM [13]: 96% | growth at 0.1 µM [14]: 92% | growth at 10 µM [15]: -78% | growth at 100 µM [16]: -96% | growth at 100 µM [17]: -81% | growth at 1 µM [18]: 54% | growth at 1 µM [19]: 88% | growth at 100 µM [20]: -86% | growth at 100 µM [21]: -82% | growth at 1 µM [22]: 68% | growth at 0.01 µM [23]: 95% | GI50 [24]: 1.73 µM | LC50 [24]: 6.04 µM | TGI [24]: 3.23 µM | GI50 [25]: 1.88 µM | LC50 [25]: 6.29 µM | TGI [25]: 3.44 µM | growth at 10 µM [26]: -70% | growth at 0.01 µM [27]: 92% | GI50 [28]: 0.33 µM | LC50 [28]: 4.52 µM | TGI [28]: 1.42 µM | GI50 [29]: 1.82 µM | LC50 (concentration killing 50% of cells) [29]: 6.34 µM | TGI [29]: 3.4 µM | growth at 0.1 µM [30]: 98% | growth at 0.1 µM [31]: 80% | growth at 100 µM [32]: -46% | growth at 0.01 µM [33]: 86% | growth at 0.1 µM [34]: 98% | growth at 1 µM [35]: 92% | growth at 1 µM [36]: 74% | growth at 1 µM [37]: 94%
